Data taken from patent US12162872B2, “Cycloalkylurea derivative” (Sumitomo Pharma Co., Ltd., priority 2019, dated 2024).

Molecular target: T1, Human orexin receptor type 2 (Homo sapiens, UniProt O43614)
T1 construct: expressed in transfected cells; host or cells: CHO cells (transient expression)
T1 sequence (O43614 1-444): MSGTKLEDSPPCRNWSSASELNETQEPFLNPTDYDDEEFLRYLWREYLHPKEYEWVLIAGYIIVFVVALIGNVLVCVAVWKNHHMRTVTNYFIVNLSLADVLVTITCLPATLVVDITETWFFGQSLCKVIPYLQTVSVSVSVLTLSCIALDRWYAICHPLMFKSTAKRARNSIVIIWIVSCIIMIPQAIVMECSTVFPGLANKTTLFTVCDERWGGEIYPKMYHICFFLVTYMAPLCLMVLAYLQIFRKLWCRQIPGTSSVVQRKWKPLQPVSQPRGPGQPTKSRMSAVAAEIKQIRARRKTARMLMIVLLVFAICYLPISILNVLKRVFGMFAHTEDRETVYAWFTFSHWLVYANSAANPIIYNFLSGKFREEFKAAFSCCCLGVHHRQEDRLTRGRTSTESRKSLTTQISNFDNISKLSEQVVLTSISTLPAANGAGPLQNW
Assay: Test 1: Evaluation of agonist activity for orexin receptor type 2 (aequorin luminescence, intracellular calcium mobilization in CHO cells)
Assay type: cell-based
Conditions: relative percentage of luminescence for the luminescence (100%) of Orexin A (100 pM); CHO cells transiently expressing human orexin receptor type 2 and apoaequorin; Orexin A Lot. 641114
Experimental: Test 1: Evaluation of Agonist Activity for Orexin Receptor Type 2
Human orexin receptor type 2 and apoaequorin were transiently expressed in CHO cells, and the agonist activity was evaluated based on intracellular calcium mobilization with ligand stimulation. The CHO cells transiently-expressed human orexin receptor type 2 and apoaequorin were seeded on a 384-well plate by 2,000 cells/well, and then incubated for 16-22 hours. After the plate was returned to room temperature, Coelenterazine hcp (final concentration: 1 μM) was added to the plate, and the plate was allowed to stand at room temperature for 2 hours. And then, Orexin A (PEPTIDE INSTITUTE, INC., Lot. 641114) or each test compound was added to the plate, and the luminescence of the cells was measured with FDSS7000 (Hamamatsu Photonics K.K.), wherein Orexin A and each test compound were dissolved in DMSO (final concentration: 0.1%), and diluted with a buffer (Hanks, 20 mM HEPES, 0.1% BSA). The agonist activity of each test compound for orexin receptor type 2 was calculated as relative percentage of luminescence for the luminescence (100%) of Orexin A (100 pM).

Structure (SMILES)	agonist activity (%)
COc1ccc(C2CCN(C(=O)N[C@@H]3[C@@H](N4CCN(C(C)C)CC4)CCCC3(F)F)CC2)nc1 (racemic) [Example 53, rac-N-{(1R,6S)-2,2-difluoro-6-[4-(propan-2-yl)piperazin-1-yl]cyclohexyl}-4-(5-methoxypyridin-2-yl)piperidine-1-carboxamide]	143
CC(C)N1CCN([C@H]2CCCC(F)(F)[C@@H]2NC(=O)N2CCC(C)(C3CCCC3)CC2)CC1 (racemic) [Example 26, rac-4-cyclopentyl-N-{(1R,6S)-2,2-difluoro-6-[4-(propan-2-yl)piperazin-1-yl]cyclohexyl}-4-methylpiperidine-1-carboxamide]	198
Cc1ccc(C2(C)CCN(C(=O)N[C@@H]3[C@@H](N4CCN(C(C)C)CC4)CCCC3(F)F)CC2)c(C#N)c1 [Example 60, 4-(2-cyano-4-methylphenyl)-N-{(1R,6S)-2,2-difluoro-6-[4-(propan-2-yl)piperazin-1-yl]cyclohexyl}-4-methylpiperidine-1-carboxamide]	151
CC(C)N1CCN([C@H]2CCCC(F)(F)[C@@H]2NC(=O)N2CCC(C)(c3nsc(C4CC4)n3)CC2)CC1 [Example 43, 4-(5-cyclopropyl-1,2,4-thiadiazol-3-yl)-N-{(1R,6S)-2,2-difluoro-6-[4-(propan-2-yl)piperazin-1-yl]cyclohexyl}-4-methylpiperidine-1-carboxamide]	146
CO[C@H]1CCC[C@H](N2CCN(C(C)C)CC2)[C@H]1NC(=O)N1CCC(c2ccc(C)cc2)CC1 (racemic) [Example 4, rac-N-{(1R,2S,6S)-2-methoxy-6-[4-(propan-2-yl)piperazin-1-yl]cyclohexyl}-4-(4-methylphenyl)piperidine-1-carboxamide]	62
CC(C)c1ccc(C2=CCCCC2NC(=O)N2CCC(C)(c3noc(C4CC4)n3)CC2)cn1 (racemic) [Example 16, rac-4-(5-cyclopropyl-1,2,4-oxadiazol-3-yl)-4-methyl-N-{2-[6-(propan-2-yl)pyridin-3-yl]cyclohex-2-en-1-yl}piperidine-1-carboxamide]	39
CC(C)N1CCN([C@H]2CCCC(F)(F)[C@@H]2NC(=O)N2CCC(C)(c3cc(C4CC4)on3)CC2)CC1 (racemic) [Example 20, rac-4-(5-cyclopropyl-1,2-oxazol-3-yl)-N-{(1R,6S)-2,2-difluoro-6-[4-(propan-2-yl)piperazin-1-yl]cyclohexyl}-4-methylpiperidine-1-carboxamide]	160
CC(C)N1CC[C@H](O[C@H]2CCCC(F)(F)[C@@H]2NC(=O)N2CCC(C)(c3noc([C@@H]4C[C@@H]4F)n3)CC2)C1 [Example 72, N-[(1R,6S)-2,2-difluoro-6-{[(3S)-1-(propan-2-yl)pyrrolidin-3-yl]oxy}cyclohexyl]-4-{5-[(1S,2S)-2-fluorocyclopropyl]-1,2,4-oxadiazol-3-yl}-4-methylpiperidine-1-carboxamide]	146
Cc1ccc(C2(C)CCN(C(=O)N[C@@H]3[C@@H](N4C5CCC4CN(C(C)C)C5)CCCC3(F)F)CC2)cc1 [Example 63, N-{(1R,6S)-2,2-difluoro-6-[3-(propan-2-yl)-3,8-diazabicyclo[3.2.1]octan-8-yl]cyclohexyl}-4-methyl-4-(4-methylphenyl)piperidine-1-carboxamide]	149
CC(C)N1CCN([C@H]2CCCC(F)(F)[C@@H]2NC(=O)N2CCC(C)(c3ccccc3)CC2)CC1 (racemic) [Example 39, rac-N-{(1R,6S)-2,2-difluoro-6-[4-(propan-2-yl)piperazin-1-yl]cyclohexyl}-4-methyl-4-phenylpiperidine-1-carboxamide]	157

The next lines start with the values.

agonist activity (%)	Structure (SMILES)
183	CC(C)N1CCN([C@H]2CCCC(F)(F)[C@@H]2NC(=O)N2CCC(C)(c3nnc(C4CC4)s3)CC2)CC1 (racemic) [Example 34, rac-4-(5-cyclopropyl-1,3,4-thiadiazol-2-yl)-N-{(1R,6S)-2,2-difluoro-6-[4-(propan-2-yl)piperazin-1-yl]cyclohexyl}-4-methylpiperidine-1-carboxamide]
155	CC(C)N1CCN([C@H]2CCCC(F)(F)[C@@H]2NC(=O)N2CCC(C)(c3nsc(OC4CC4)n3)CC2)CC1 [Example 57, 4-[5-(cyclopropyloxy)-1,2,4-thiadiazol-3-yl]-N-{(1R,6S)-2,2-difluoro-6-[4-(propan-2-yl)piperazin-1-yl]cyclohexyl}-4-methylpiperidine-1-carboxamide]
148	CC(C)N1CCN([C@H]2CCCC(F)(F)[C@@H]2NC(=O)N2CCC(C)(c3nnc(C4CC4)s3)CC2)CC1 [Example 44, 4-(5-cyclopropyl-1,3,4-thiadiazol-2-yl)-N-{(1R,6S)-2,2-difluoro-6-[4-(propan-2-yl)piperazin-1-yl]cyclohexyl}-4-methylpiperidine-1-carboxamide]
210	CC(C)N1CCN([C@H]2CCCC(F)(F)[C@@H]2NC(=O)N2CCC(C)(c3noc(C4CC4)n3)CC2)CC1 [Example 24, 4-(5-cyclopropyl-1,2,4-oxadiazol-3-yl)-N-{(1R,6S)-2,2-difluoro-6-[4-(propan-2-yl)piperazin-1-yl]cyclohexyl}-4-methylpiperidine-1-carboxamide]
185	CC(C)N1CC[C@@H](O[C@H]2CCCC(F)(F)[C@@H]2NC(=O)N2CCC(C)(c3noc([C@@H]4C[C@@H]4F)n3)CC2)C1 [Example 73, N-[(1R,6S)-2,2-difluoro-6-{[(3R)-1-(propan-2-yl)pyrrolidin-3-yl]oxy}cyclohexyl]-4-{5-[(1S,2S)-2-fluorocyclopropyl]-1,2,4-oxadiazol-3-yl}-4-methylpiperidine-1-carboxamide]
163	CC(C)N1CCN([C@@H]2CCCC(F)(F)[C@H]2NC(=O)N2CCC(C)(c3cc(C4CC4)on3)CC2)CC1 [Example 22, 4-(5-cyclopropyl-1,2-oxazol-3-yl)-N-{(1S,6R)-2,2-difluoro-6-[4-(propan-2-yl)piperazin-1-yl]cyclohexyl}-4-methylpiperidine-1-carboxamide]
144	CC(C)N1CCN([C@H]2CCCC(F)(F)[C@@H]2NC(=O)N2CCC(C)(c3noc([C@@H]4C[C@@H]4F)n3)CC2)CC1 [Example 66, N-{(1R,6S)-2,2-difluoro-6-[4-(propan-2-yl)piperazin-1-yl]cyclohexyl}-4-{5-[(1S,2S)-2-fluorocyclopropyl]-1,2,4-oxadiazol-3-yl}-4-methylpiperidine-1-carboxamide]
162	CC(C)N1CCN([C@H]2CCCC(F)(F)[C@@H]2NC(=O)N2CCC(C)(c3nc4c(o3)CCCC4)CC2)CC1 (racemic) [Example 27, rac-N-{(1R,6S)-2,2-difluoro-6-[4-(propan-2-yl)piperazin-1-yl]cyclohexyl}-4-methyl-4-(4,5,6,7-tetrahydro-1,3-benzoxazol-2-yl)piperidine-1-carboxamide]
156	CC(C)N1CCN([C@H]2CCCC(F)(F)[C@@H]2NC(=O)N2CCC(C)(c3noc([C@H]4C[C@H]4C)n3)CC2)CC1 [Example 68, N-{(1R,6S)-2,2-difluoro-6-[4-(propan-2-yl)piperazin-1-yl]cyclohexyl}-4-methyl-4-{5-[(1S,2R)-2-methylcyclopropyl]-1,2,4-oxadiazol-3-yl}piperidine-1-carboxamide]
